From ChEMBL document CHEMBL4024706 (Eur J Med Chem, 2017) come the findings set out here.

Activity calls are given as the source filed them. The rule behind the calls is not given here. Bounds are passed on as bounds.

The target of series [1] is Tyrosine-protein kinase BTK (Homo sapiens, UniProt Q06187). In words: Inhibition of full length recombinant human N-terminal His tagged […] expressed in baculovirus infected Sf9 insect cells using poly (Glu,Tyr)4:1 as substrate pretreated for 60 mins followed by substrate addition after 1 hr by ADP-Glo luminescence assay. For orientation: ADP-Glo turns the ADP formed in a reaction into a luminescent signal.
Chain of Tyrosine-protein kinase BTK (Q06187 whole entry): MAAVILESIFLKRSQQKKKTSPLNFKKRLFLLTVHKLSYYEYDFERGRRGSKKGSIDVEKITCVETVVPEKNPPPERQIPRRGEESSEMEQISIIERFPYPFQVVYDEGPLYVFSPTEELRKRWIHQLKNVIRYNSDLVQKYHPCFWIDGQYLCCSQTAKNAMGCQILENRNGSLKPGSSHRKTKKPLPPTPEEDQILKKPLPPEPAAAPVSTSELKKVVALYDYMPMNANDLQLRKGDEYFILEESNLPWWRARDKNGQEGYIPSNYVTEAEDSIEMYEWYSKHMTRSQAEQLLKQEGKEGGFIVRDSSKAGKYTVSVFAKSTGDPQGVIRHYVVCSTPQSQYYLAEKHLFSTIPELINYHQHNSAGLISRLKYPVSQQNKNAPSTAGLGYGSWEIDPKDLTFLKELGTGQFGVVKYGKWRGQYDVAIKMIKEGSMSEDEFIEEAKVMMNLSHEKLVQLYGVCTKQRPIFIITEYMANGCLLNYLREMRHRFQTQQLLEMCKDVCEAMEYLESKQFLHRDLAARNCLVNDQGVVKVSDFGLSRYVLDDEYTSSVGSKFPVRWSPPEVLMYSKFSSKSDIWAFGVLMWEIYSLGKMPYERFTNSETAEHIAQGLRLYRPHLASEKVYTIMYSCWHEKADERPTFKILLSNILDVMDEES

For another series, the system named is MV4-11. Kind of series: Growth inhibition of human MV411 cells. In kind it is functional.
In series [2] the test system is U2932. In words: Growth inhibition of human U2932 cells. It counts as functional.
For series [3], the system named is U2932. In words: Cell cycle arrest in human U2932 cells assessed as increase in accumulation at G0/G1 phase at 10 uM after 48 hrs by propidium iodide/RNase staining based flow cytometric method. It counts as functional.
In the next series the test system is OCI-AML-3. In words: Growth inhibition of human OCI-AML3 cells. In kind it is functional.
For series [4], the system named is Pfeiffer. In words: Cell cycle arrest in human Pfeiffer cells assessed as increase in accumulation at G0/G1 phase at 10 uM after 48 hrs by propidium iodide/RNase staining based flow cytometric method. It counts as functional. (In general: Flow cytometry measures light scatter and fluorescence of single cells or particles in a stream.)
A short description of series [5]: Growth inhibition of human M07e cells. In kind it is functional.
The next series concerns PBMC. In words: Cytotoxicity against PBMC (unknwon origin). In kind it is cell-based.
The test system of the next series is U-937. In words: Growth inhibition of human U937 cells. In kind it is functional.
For a further series, the system named is NB-4. In words: Growth inhibition of human NB4 cells. It counts as functional.
In a further series the test system is Ramos. In words: Growth inhibition of human Ramos cells. In kind it is functional.
For another series, the system named is SU-DHL-2. Kind of series: Growth inhibition of human SU-DHL-2 cells. It counts as functional.
For a further series, the system named is SKM-1. In words: Growth inhibition of human SKM1 cells. In kind it is functional.
The test system of series [6] is Pfeiffer. Kind of series: Growth inhibition of human Pfeiffer cells. In kind it is functional.
In series [7] the target is T1, Tyrosine-protein kinase JAK3 (Homo sapiens, UniProt P52333).
T1 sequence (P52333 whole entry): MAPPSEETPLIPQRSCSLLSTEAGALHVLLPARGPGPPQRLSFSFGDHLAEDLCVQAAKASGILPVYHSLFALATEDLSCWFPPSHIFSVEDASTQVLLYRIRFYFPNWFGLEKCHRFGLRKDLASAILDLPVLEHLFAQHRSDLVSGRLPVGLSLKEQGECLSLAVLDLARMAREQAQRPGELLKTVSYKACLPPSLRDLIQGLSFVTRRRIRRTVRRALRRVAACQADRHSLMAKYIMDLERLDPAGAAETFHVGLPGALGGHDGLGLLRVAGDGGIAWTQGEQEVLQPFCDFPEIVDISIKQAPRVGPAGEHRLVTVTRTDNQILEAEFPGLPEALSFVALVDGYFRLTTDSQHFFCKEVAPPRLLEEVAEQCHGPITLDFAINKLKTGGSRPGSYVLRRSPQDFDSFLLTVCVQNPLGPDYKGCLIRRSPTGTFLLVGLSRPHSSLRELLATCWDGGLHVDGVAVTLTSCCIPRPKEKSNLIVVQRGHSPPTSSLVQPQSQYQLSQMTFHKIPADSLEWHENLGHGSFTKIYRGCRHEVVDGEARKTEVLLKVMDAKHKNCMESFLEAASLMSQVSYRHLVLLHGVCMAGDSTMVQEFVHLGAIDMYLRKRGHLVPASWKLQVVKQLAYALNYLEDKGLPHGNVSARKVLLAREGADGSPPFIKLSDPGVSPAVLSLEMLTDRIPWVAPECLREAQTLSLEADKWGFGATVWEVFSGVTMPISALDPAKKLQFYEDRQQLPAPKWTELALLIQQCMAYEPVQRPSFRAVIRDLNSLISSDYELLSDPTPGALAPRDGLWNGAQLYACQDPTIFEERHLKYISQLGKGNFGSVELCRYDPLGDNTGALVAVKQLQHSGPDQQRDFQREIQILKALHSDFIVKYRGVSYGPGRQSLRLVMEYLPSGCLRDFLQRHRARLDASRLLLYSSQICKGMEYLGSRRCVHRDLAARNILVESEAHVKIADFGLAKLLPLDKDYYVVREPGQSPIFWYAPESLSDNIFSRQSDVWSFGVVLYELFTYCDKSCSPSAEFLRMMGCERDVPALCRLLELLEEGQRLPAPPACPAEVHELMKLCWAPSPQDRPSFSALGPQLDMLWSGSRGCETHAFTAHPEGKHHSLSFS
In words: Inhibition of recombinant human N-terminal GST-tagged JAK3 (781 to end residues) expressed in baculovirus infected Sf9 insect cells using poly (Glu,Tyr)4:1 as substrate pretreated for 60 mins followed by substrate addition after 1 hr by ADP-Glo luminescence assay.

Series [8] concerns the target Epidermal growth factor receptor (Homo sapiens, UniProt P00533). Kind of series: Inhibition of recombinant human N-terminal GST-tagged wild-type EGFR (695 to end residues) expressed in baculovirus infected Sf9 insect cells using poly (Glu,Tyr)4:1 as substrate pretreated for 60 mins followed by substrate addition after 1 hr by ADP-Glo luminescence assay.

Chain of Epidermal growth factor receptor (P00533 whole entry): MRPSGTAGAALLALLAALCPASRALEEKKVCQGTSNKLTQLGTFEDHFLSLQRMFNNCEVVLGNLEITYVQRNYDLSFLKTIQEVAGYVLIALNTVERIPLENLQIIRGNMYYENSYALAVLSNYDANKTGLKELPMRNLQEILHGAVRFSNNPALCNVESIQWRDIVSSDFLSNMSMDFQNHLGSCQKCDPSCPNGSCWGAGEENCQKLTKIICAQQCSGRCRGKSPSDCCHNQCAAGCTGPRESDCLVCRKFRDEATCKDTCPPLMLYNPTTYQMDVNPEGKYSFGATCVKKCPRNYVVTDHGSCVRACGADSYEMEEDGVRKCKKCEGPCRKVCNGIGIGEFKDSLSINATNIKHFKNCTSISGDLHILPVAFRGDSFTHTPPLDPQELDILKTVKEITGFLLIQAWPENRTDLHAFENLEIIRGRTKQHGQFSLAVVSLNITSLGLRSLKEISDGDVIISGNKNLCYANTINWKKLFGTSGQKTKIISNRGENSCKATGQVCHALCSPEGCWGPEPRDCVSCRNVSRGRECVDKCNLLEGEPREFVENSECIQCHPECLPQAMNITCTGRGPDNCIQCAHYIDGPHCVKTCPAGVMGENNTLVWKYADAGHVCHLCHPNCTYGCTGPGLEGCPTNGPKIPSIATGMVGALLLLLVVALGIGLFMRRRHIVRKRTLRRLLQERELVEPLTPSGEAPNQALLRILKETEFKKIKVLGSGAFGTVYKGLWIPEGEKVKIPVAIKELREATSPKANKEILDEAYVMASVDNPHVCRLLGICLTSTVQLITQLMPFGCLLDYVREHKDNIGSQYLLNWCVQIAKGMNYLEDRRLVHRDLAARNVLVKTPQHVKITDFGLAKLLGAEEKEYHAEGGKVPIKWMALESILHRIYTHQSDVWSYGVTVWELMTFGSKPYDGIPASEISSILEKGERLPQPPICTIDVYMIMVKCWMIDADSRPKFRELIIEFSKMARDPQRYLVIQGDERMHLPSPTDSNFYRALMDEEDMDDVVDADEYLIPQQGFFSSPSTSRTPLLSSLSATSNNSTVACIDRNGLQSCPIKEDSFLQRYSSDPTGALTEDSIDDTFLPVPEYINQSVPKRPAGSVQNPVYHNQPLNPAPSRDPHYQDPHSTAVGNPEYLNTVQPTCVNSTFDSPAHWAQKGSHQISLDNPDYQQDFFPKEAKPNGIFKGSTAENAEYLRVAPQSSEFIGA

As for `C=CC(=O)Nc1cc(Nc2cc(-c3cccc(NC(=O)c4ccc(C)cc4)c3C)cn(C)c2=O)ccc1C(=O)N1CCOCC1`, the IC50 (usually the concentration that gives 50% inhibition) in [1] was 114 nM.
On to `C=CC(=O)Nc1cc(Nc2cc(-c3cccc(NC(=O)c4cc(OC)c(OC)c(OC)c4)c3C)cn(C)c2=O)ccc1C(=O)N1CCOCC1`, for which the half-inhibitory concentration (IC50) in series [1] amounted to 1430 nM.
Same read-out and setting: the figure for `C=CC(=O)Nc1cc(Nc2cc(-c3cccc(NC(=O)c4cccc(OC)c4)c3C)cn(C)c2=O)ccc1C(=O)N1CCOCC1` is 1190 nM; for `C=CC(=O)Nc1ccc(NC(=O)c2ccc(C(C)(C)C)cc2)c(C)c1-c1cc(Nc2ccc(C(=O)N3CCOCC3)cc2)c(=O)n(C)c1` it is 1700 nM.
On the same count and under the same terms, with `C=CC(=O)Nc1cc(Nc2cc(-c3cccc(NC(=O)c4ccc(C(C)(C)C)cc4)c3C)cn(C)c2=O)ccc1C(=O)N1CCN(C(=O)OC(C)(C)C)CC1` the figure was 68 nM.
Still for that read-out and setting: with `C=CC(=O)Nc1cc(Nc2cc(-c3cccc(NC(=O)c4ccc(C(C)(C)C)cc4)c3C)cn(C)c2=O)ccc1C(=O)N1CCN(C)CC1` the figure was 127 nM.
Regarding `C=CC(=O)Nc1cc(Nc2cc(-c3cccc(NC(=O)c4cccc(C(F)(F)F)c4)c3C)cn(C)c2=O)ccc1C(=O)N1CCOCC1`, the IC50 in [1] is more than 10000 nM.
Still for that read-out and setting: the figure for `C=CC(=O)N1CCC(Nc2cc(-c3cccc(NC(=O)c4ccc(N(C)C)cc4)c3C)cn(C)c2=O)CC1` is more than 10000 nM.
Consider `C=CC(=O)N1CCC[C@@H](n2nc(-c3ccc(Oc4ccccc4)cc3)c3c(N)ncnc32)C1` [IBRUTINIB], for which the GI50 (in general, the concentration at which growth is held to half of that of the control) in the series with MV4-11 was 250 nM; in the series on U2932 [2], 4400 nM; with OCI-AML-3, 9200 nM; in series [5], 590 nM; with U-937, 2900 nM; in the series with NB-4, 3000 nM. For the same compound, the GI50 in the series on Ramos worked out at 3400 nM; with SU-DHL-2 it was 640 nM; in the series with SKM-1, 3600 nM; in the series with Pfeiffer [6] it was 1600 nM. In addition, the result with U2932 [3] and with Pfeiffer [4] was Active. Also, the Activity entry in the series on PBMC is on record as “Non-Toxic”.
Take `C=CC(=O)Nc1cc(Nc2cc(-c3cccc(NC(=O)c4ccc(C(C)(C)C)cc4)c3C)cn(C)c2=O)ccc1C(=O)OC`: the IC50 in series [1] was 197 nM.
Turning to `C=CC(=O)Nc1cccc(Nc2ncc(NC(=O)c3cc(NC(=O)c4cccc(C(F)(F)F)c4)ccc3C)cn2)c1`, the values for the IC50 in series [7] and in series [8] were 1700 nM and 72 nM, respectively.
In the case of `Cc1c(NC(=O)c2ccc(C(C)(C)C)cc2)cccc1-c1cc(Nc2ccc(C(=O)N3CCOCC3)c(NC(=O)CCl)c2)c(=O)n(C)c1`, in series [1], the 50% inhibitory concentration (IC50) worked out at 63 nM.
Same read-out and setting: with `C=CC(=O)Nc1cc(Nc2cc(-c3cccc(NC(=O)c4ccccc4)c3C)cn(C)c2=O)ccc1C(=O)N1CCOCC1` the figure was 3740 nM; with `C=CC(=O)Nc1cc(Nc2cc(-c3cccc(NC(=O)c4ccc5c(c4)CCCC5)c3C)cn(C)c2=O)ccc1C(=O)N1CCOCC1`, 57 nM.
For the compound `C=CC(=O)Nc1cccc(Nc2nc(Nc3ccc(OCCOC)cc3)ncc2F)c1` [SPEBRUTINIB], the IC50 stood at 1750 nM in series [7] and 442 nM in series [8].
On to `C=CC(=O)Nc1cc(Nc2cc(-c3cccc(NC(=O)c4ccc5c(c4)OCO5)c3C)cn(C)c2=O)ccc1C(=O)N1CCOCC1`, for which the IC50 in series [1] was 282 nM.
On the same count and under the same terms, the figure for `C=CC(=O)NC1CCCC(Nc2cc(-c3cccc(NC(=O)c4ccc(N(C)C)cc4)c3C)cn(C)c2=O)C1` (stereo unspecified) is 2950 nM; for `C=CC(=O)Nc1cc(Nc2cc(-c3cccc(NC(=O)c4ccc(C)c(C(F)(F)F)c4)c3C)cn(C)c2=O)ccc1C(=O)N1CCOCC1` it is 1260 nM; for `C=CC(=O)NC1CCN(c2cc(-c3cccc(NC(=O)c4ccc(N(C)C)cc4)c3C)cn(C)c2=O)CC1` it is more than 10000 nM.
Still for that read-out and setting: the figure for `C=CC(=O)Nc1cc(Nc2cc(-c3cccc(NC(=O)c4ccc(C(C)(C)C)cc4)c3C)cn(C)c2=O)ccc1C` is 365 nM; for `C=CC(=O)Nc1cc(Nc2cc(-c3cccc(NC(=O)c4ccc5c(c4)OCCO5)c3C)cn(C)c2=O)ccc1C(=O)N1CCOCC1` it is 89 nM.
On to `C=CC(=O)Nc1cc(Nc2cc(-c3cccc(NC(=O)c4ccc(C(C)(C)C)cc4)c3C)cn(C)c2=O)ccc1C(=O)NC1CC1`, for which the IC50 in [1] stood at 41 nM.
Same read-out and setting: with `C=CC(=O)Nc1cc(Nc2cc(-c3cccc(NC(=O)c4ccc(C(C)(C)C)cc4)c3C)cn(C)c2=O)ccc1C(=O)N1CCC(OC)CC1` the figure was 65 nM.
The same measure, in the same setting: with `C=CC(=O)N1CCCC(Nc2cc(-c3cccc(NC(=O)c4ccc(N(C)C)cc4)c3C)cn(C)c2=O)C1` (stereo unspecified) the figure was more than 10000 nM.
For the compound `C=CC(=O)Nc1cccc(Nc2nc(Nc3ccc(Oc4ccnc(C(=O)NC)c4)cc3)ncc2F)c1`, in series [7], the half-maximal inhibitory concentration (IC50) amounted to 1530 nM.
As for `C=CC(=O)Nc1cccc(Nc2cc(-c3cccc(NC(=O)c4ccc(C(C)(C)C)cc4)c3C)cn(C)c2=O)c1`, in series [1], the IC50 was more than 10000 nM.
Same read-out and setting: with `C=CC(=O)Nc1cc(Nc2cc(-c3cccc(NC(=O)c4ccc(C(F)(F)F)cc4)c3C)cn(C)c2=O)ccc1C(=O)N1CCOCC1` the figure was 76 nM; with `C=CC(=O)Nc1cc(Nc2cc(-c3cccc(NC(=O)c4ccc(N(C)C)cc4)c3C)cn(C)c2=O)ccc1C(=O)N1CCC(OC)CC1`, 596 nM.
Still for that read-out and setting: with `C=CC(=O)Nc1cc(Nc2cc(-c3cccc(NC(=O)c4ccc(N5CCOCC5)cc4)c3C)cn(C)c2=O)ccc1C(=O)N1CCOCC1` the figure was 273 nM.
On the same count and under the same terms, with `C=CC(=O)Nc1cc(Nc2cc(-c3cccc(NC(=O)c4ccc(CC)cc4)c3C)cn(C)c2=O)ccc1C(=O)N1CCOCC1` the figure was 210 nM; with `C=CC(=O)Nc1cc(Nc2cc(-c3cccc(NC(=O)c4ccc(C(C)(C)C)cc4)c3C)cn(C)c2=O)ccc1C(=O)N(C)C`, 34 nM.
For the compound `C=CC(=O)Nc1cc(Nc2cc(-c3cccc(NC(=O)c4ccc(N(C)C)cc4)c3C)cn(C)c2=O)ccc1C(=O)N1CCC(O)CC1`, the IC50 in series [1] was 187 nM.
As for `C=CC(=O)N1CCc2ccc(-n3c(=O)ccc4cnc5ccc(-c6cnn(C)c6)cc5c43)cc21`, the figures for the IC50 in series [7] and in [8] were 3340 nM and 874 nM, respectively.
Take `C=CC(=O)NC1CCCN(c2cc(-c3cccc(NC(=O)c4ccc(N(C)C)cc4)c3C)cn(C)c2=O)C1` (stereo unspecified): the IC50 in series [1] is more than 10000 nM.
`C=CC(=O)Nc1cc(Nc2cc(-c3cccc(NC(=O)c4ccc(C(C)C)cc4)c3C)cn(C)c2=O)ccc1C(=O)N1CCOCC1`: the IC50 in [1] worked out at 32 nM.
The same measure, in the same setting: the figure for `C=CC(=O)Nc1cc(Nc2cc(-c3cccc(NC(=O)c4ccc(C(C)(C)C)cc4)c3C)cn(C)c2=O)ccc1C(=O)N1CCCC(O)C1` (stereo unspecified) is 21 nM; for `C=CC(=O)Nc1cc(Nc2cc(-c3cccc(NC(=O)c4ccc(N(C)C)cc4)c3C)cn(C)c2=O)ccc1C(=O)N1CCCC(O)C1` (stereo unspecified) it is 244 nM; for `C=CC(=O)Nc1cc(C(=O)N2CCOCC2)ccc1Nc1cc(-c2cccc(NC(=O)c3ccc(C(C)(C)C)cc3)c2C)cn(C)c1=O` it is 231 nM.
In the case of `C=CC(=O)Nc1cc(Nc2cc(-c3cccc(NC(=O)c4ccc(N(C)C)cc4)c3C)cn(C)c2=O)ccc1C(=O)N(CCOCC)CCOCC`, the IC50 in series [1] is 3190 nM.
As for `C=CC(=O)Nc1cc(Nc2cc(-c3cccc(NC(=O)c4ccc(N5CCCC5)cc4)c3C)cn(C)c2=O)ccc1C(=O)N1CCOCC1`, the 50% inhibitory concentration (IC50) in series [1] was determined as 86 nM.
Same read-out and setting: the figure for `C=CC(=O)Nc1cc(Nc2cc(-c3cccc(NC(=O)c4ccc(OC)cc4)c3C)cn(C)c2=O)ccc1C(=O)N1CCOCC1` is 2610 nM.
